# Laboratory results from patent US4812409A, “Hydrolyzable fluorescent substrates and analytical determinations using same” (Eastman Kodak Company, priority 1986, dated 1989).
# Assays:
# [1] = test system: diacetinase; assay: Solution determination of an esterase enzyme; type: biochemical; conditions: pH 7.5, 25° C.; for Relative Fluorescence, Test Cell: ex 540 nm, em 620 nm
# Method: A buffered solution of the substrate was prepared as follows. The substrate in N,N-dimethylformamide (16 mg/ml solvent) was added to 500 μl TRITON X-100 surfactant, and the resulting solution was added slowly to 25 ml potassium phosphate buffer (0.05 molar, pH 7.5) with stirring. Three milliliters of the buffered solution containing the substrate was placed in each of two quartz cells. To one cell was added 10 μl of a solution containing diacetinase (0.218 I.U. diacetinase per μl of potassium phosphate buffer, pH 7.5). The second cell was the Control. The relative fluorescence of each cell solution was measured at various times with a commercially available Perkin-Elmer fluorometer (excitation, 540 nm, maximum emission, 620 nm) at pH 7.5 and 25° C.
# [2] = test system: white blood cells; assay: Determination of esterase activity in white blood cells; type: cell-based; conditions: pH 7.5, ex 540 nm, em 620 nm
# Method: Leucocyte-rich layers (buffy coats) were purified from blood of healthy adult donors (taken in ACD tubes*) by adding 1.5 ml of Dextran T70 (6% in balanced salt solution), purchased from Pharmacia Fine Chemical (Piscataway, N.J., U.S.A.), to a 10 ml tube of blood. The tubes were allowed to set for one hour, then the plasma layer was transferred to sterile 15 ml centrifuge tubes, and the tubes were filled up to 7.5 ml with PBS solution (8.5 g sodium chloride in 0.05 molar potassium phosphate buffer, pH 7.5). The tubes were centrifuged at 1000 RPM for 10 minutes. The resulting cell pellet was resuspended in 10 ml lysing solution [0.83 g ammonium chloride, 0.1 g sodium bicarbonate and 0.003 g (ethylenedinitrilo)tetraacetic acid disodium salt in 100 ml of water, pH 7.2], and the tubes were allowed to set until the solution cleared. The tubes were again centrifuged, and the pellet was washed and resuspended in PBS. Cells were counted and adjusted to about 10^6 cells/ml.
# Three milliliters of various concentrations of white blood cells in potassium phosphate buffer (0.05 molar, pH 7.5) were mixed with 10 μl of the substrate of Example 3 ([…]), and the relative fluorescence was measured at an excitation wavelength of 540 nm and a maximum emission wavelength of 620 nm.
# [3] = test system: carboxy esterase (Esterase, Type II); assay: Determination of esterase activity in a dry analytical element; type: biochemical; conditions: filter paper element; 10 μl of 10 μg/ml esterase, pH 7.5; 1 minute incubation at 37° C.
# Method: A strip of Whatman No. 2 filter paper (VWR Scientific Co., Rochester, N.Y., U.S.A.) was immersed in a solution of the substrate in methanol (3 mg in 0.5 ml). The paper was then allowed to dry at 37° C. for two hours.
# A carboxy esterase (Esterase, Type II, 100 I.U./mg protein from Sigma Chemical Co., St. Louis, Mo., U.S.A.) was dissolved in 0.05 molar potassium phosphate buffer (pH 7.5), 10 μg/ml of buffer. A sample (10 μl) of this solution was applied to the filter paper and the sample came into contact with the substrate therein. A Control solution containing only buffer was applied to a separate area of the element. After 1 minute incubation at 37° C., the element was visually examined.
structure (smiles),measurement,setting,value
CC(=O)Oc1ccc2c3c(cccc13)C(=O)C=C2 [Example 3],"Relative Fluorescence, Test Cell",[1]; 0 min,134
same,"Relative Fluorescence, Test Cell",[1]; 0.5 min,142
same,"Relative Fluorescence, Test Cell",[1]; 1.0 min,150
same,"Relative Fluorescence, Test Cell",[1]; 3.0 min,161
same,"Relative Fluorescence, Test Cell",[1]; 5.0 min,175
same,"Relative Fluorescence, Test Cell",[1]; 7.0 min,202
same,"Relative Fluorescence, Test Cell",[1]; 10.0 min,238
same,"Relative Fluorescence, Test Cell",[1]; 15.0 min,266
same,Generation of fluorescence in the cell containing the esterase enzyme (in words),[1],rapid generation of fluorescence
same,Relative Fluorescence,"[2]; Sample 2, Cell Conc/μl 4.92 × 10^3, 0 Min",28.2
same,Relative Fluorescence,"[2]; Sample 2, Cell Conc/μl 4.92 × 10^3, 10 Min",37.1
same,Relative Fluorescence,"[2]; Sample 2, Cell Conc/μl 4.92 × 10^3, 15 Min",42.6
same,Relative Fluorescence,"[2]; Sample 2, Cell Conc/μl 4.92 × 10^3, 30 Min",60.4
same,Relative Fluorescence,"[2]; Sample 3, Cell Conc/μl 4.92 × 10^4, 0 Min",23.2
same,Relative Fluorescence,"[2]; Sample 3, Cell Conc/μl 4.92 × 10^4, 10 Min",41.7
same,Relative Fluorescence,"[2]; Sample 3, Cell Conc/μl 4.92 × 10^4, 15 Min",48.8
same,Relative Fluorescence,"[2]; Sample 3, Cell Conc/μl 4.92 × 10^4, 30 Min",70.3
same,Relative Fluorescence,"[2]; Sample 4, Cell Conc/μl 4.92 × 10^5, 0 Min",25.6
same,Relative Fluorescence,"[2]; Sample 4, Cell Conc/μl 4.92 × 10^5, 10 Min",69.0
same,Relative Fluorescence,"[2]; Sample 4, Cell Conc/μl 4.92 × 10^5, 15 Min",85.0
same,Relative Fluorescence,"[2]; Sample 4, Cell Conc/μl 4.92 × 10^5, 30 Min",124.0
same,Colour of element area contacted with esterase enzyme (visual examination),[3],bright orange
